Results on one compound are retold here after EPA's ToxValDB 9.5 (doi:10.2903/j.efsa.2010.1555).

The subject of one series is Apis mellifera. Conditions: acute; oral; unspecified; mortality.
The subject of the next series is Canidae. Particulars: chronic; duration: 1 years; oral; Dog Other.
The test system of the next series is Coturnix coturnix. Conditions: acute; oral; diet; mortality.
The subject of a further series is Coturnix japonica. Conditions: reproduction developmental.
A further series concerns Daphnia magna. Particulars: chronic/long-term; duration: 21 days; reproduction.
The subject of a further series is Tagia sp. Conditions: acute; duration: 14 days; mortality.
Setting [1] is: reproduction developmental, body weight.

The structures appear in SMILES notation.

As for `CCC([O-])=C1C(=O)CC(C(=O)[O-])CC1=O.[Ca+2]` (stereo unspecified) [Prohexadione-calcium], the LD50 in the series with Anas platyrhynchos (acute, oral, unspecified, mortality) was above 2000 mg/kg; in the series on Apis mellifera it was above 100 µg/piece; with Colinus virginianus (acute, oral, mortality), above 2000 mg/kg; with Rattus norvegicus (acute, oral, mortality), above 5000 mg/kg. Moreover, the NOEC in the series with Anas platyrhynchos (reproductive) was determined as 116 mg/kg-day; with Colinus virginianus (reproduction developmental), 48.8 mg/kg-day; with Coturnix japonica it was 126 mg/kg-day; in the series on Daphnia magna, 100 mg/L; in the series with Oncorhynchus mykiss (chronic/long-term, duration: 28 days, growth) it was 100 mg/L. The LC50 is above 1350 mg/kg-day in the series with Anas platyrhynchos (short-term, oral, feed, mortality); above 1210 mg/kg-day in the series on Coturnix coturnix; above 100 µg/mL in the series with Oncorhynchus mykiss (acute, duration: 96 hours, mortality); above 1000 mg/kg with Tagia sp.. For the same compound, the NOAEL was found to be 20 mg/kg-day with Canidae and 35 mg/kg-day with Rattus norvegicus (setting [1]). In addition, the NOEL in the series on Rattus norvegicus (setting [1]) came to 35 mg/kg-day.
